The values that follow come from patent US20070270455A1, “INHIBITION OF NF-kB” (priority 2005, published 2007).

One data set has as its system ACHN cells. In words: ACHN tumor xenograft growth. The class given is in vivo, nude mice. On the procedure:
(§1) IC50% for each cell line and each drug was determined. Each point represents IC50% of particular cell line, which are grouped as follows: (i) black circles—RCC cell lines (ACHN, RCC9, RCC13, RCC29, RCC45, RCC54), (ii) red triangles—non-RCC cell lines (MCF7, HT1080, H1299, U20S, LNCaP, HCT116), (iii) green squares—normal kidney cells (NKE). […] 10^7 of ACHN cells were inoculated under the skin of nude mice. At the moment tumors achieved 5 mm in diameter QC administrations were started intraperitoneally, 50 mg/kg. 5FU (35 mg/kg) was used as a control. Tumor size was measured every other day and presented as a fold increase in tumor volume.
(§2) NIH Swiss athymic nude, male mice, 5-6 weeks old were purchased from Harlan. 5×10^6 of tumor cells were inoculated into the flank of mice in 100 μL of PBS. […] As vehicle, 50% DMSO solution in PBS was used. Tumor size was measured in three dimensions every other day.

In a further data set the test system is IκB. In words: Western blot of IκB level and phosphorylation. Format: cell-based. To be noted: PC-3 cells, 10 μM; MCF7 cells. On the procedure: (§3) Western blot analysis of total protein lysates was performed using antibodies against p53 (DO1) and against specific sites of phosphorylation in p53. […] HCT116 cells were treated for 30 minutes with 1 μM PS-341. PS-341 was washed off after 30 minutes and cells were re-incubated in drug free medium prior to analysis at 3 hours or 16 hours post-treatment. […] Proteasome activity was determined by measuring the absorbance of free AMC generated by cleavage of an AMC-fluorogenic peptide. The proteasome activity of untreated cells was set at 100%. […] Cell lysates were isolated at the indicated hours after treatment and used for western blotting. […]
(§4) Cells were lysed in RIPA buffer (25 mM Tris HCl, pH7.2, 125 mM NaCl, 1% NP40, 1% sodium deoxycholate, 1 mM EDTA) containing 1 mM PMSF (Sigma), 10 μg/ml of aprotinin (Sigma) and 10 μg/ml of leupeptin (Sigma). Protein concentrations were determined with BioRad Dc protein assay kit. […] The following antibodies were used: anti-p53—monoclonal mouse DO1 (Santa-Cruz), anti-p21—monoclonal mouse F-5 (Santa-Cruz), anti-mdm2—monoclonal mouse SMP14 (Santa-Cruz). p53 phosphorylation status was analyzed using phospho-p53 sampler kit from Cell signaling according to manufacturer's recommendations, anti-p65—(C20, Santa Cruz), anti-phospho-p65—(ser536, Cell Signaling), anti-IκBa—(C21, Santa Cruz), anti-p50—(NLS, Santa Cruz). […]

Data set [1] has as its system HT1080-sip53 and HT1080-siGFP cells. As to the kind of experiment: Cell survival assay in isogenic cell pairs with anti-p53 or control siRNA. Format: cell-based, human. The note with it: p53 plus vs minus cells; FIG. 4d.
Data set [2] relates to RCC specimens and fragments of normal kidney. As to the kind of experiment: p53-responsive lacZ reporter in ex vivo organ cultures. Format: cell-based. To be noted: 24 hours, X-gal. On the procedure: as §1
Fresh RCC specimens and fragments of normal kidney from the same patients were placed in short-term organ cultures in the media containing lentiviral vector carrying p53-responsive lacZ reporter (FIG. 10B) for 24 hours.

Another data set has as its system p53. In words: Western blot of p53 phosphorylation status in RCC45 cells. The note with it: 9AA 5 μM or dox 1 μM, 16 hours. Format: cell-based. On the procedure: as §3, §4
The next data set has as its system HT1080ConALuC tumors. In words: p53-dependent luciferase reporter in xenograft tumors. Format: in vivo. To be noted: intraperitoneal; 24 hours; nude mice. On the procedure: (§5) HT1080ConALuC cells were inoculated into two flanks of nude mice. When tumors reach 5 mm in diameter, mice were injected intraperitoneally with indicated concentrations of the drugs (mg/kg, 3 mice per group). After 24 hours mice were sacrificed, tumors were isolated, lysed in Reporter Lysis Reagent (Promega) and luciferase activity was measured in […] of tumor proteins. Bars represent fold of induction of luciferase activity in tumors, treated with drugs over luciferase activity in tumors treated with vehicle. FIG. 5B: HT1080sip53 or HT1080siGFP cells were inoculated in the left and right flank of nude mice respectively.
as §2
The in vivo anti-tumor effects of aminoacridines were tested in a xenograft tumor model using HT1080 cells differing in their p53 status and carrying p53 luciferase reporters grown subcutaneously in nude mice.

A further data set has as its system RCC cell lines. In words: Restoration of p53-mediated transactivation in RCC cell lines. The class given is cell-based. To be noted: data not shown.
A further data set has as its system H1299-NF-kBLuc cells. As to the kind of experiment: NF-κB-responsive luciferase reporter assay. The class given is cell-based. The note with it: basal and TNF-induced (10 ng/ml).
Another data set relates to HT1080sip53 cells. In words: Xenograft tumor growth, p53-deficient tumors. Format: in vivo, nude mice. To be noted: 50 mg/kg i.p. daily. On the procedure: as §5, §2
Data set [3] concerns RCC54 and RCC45, normal kidney epithelial cells. As to the kind of experiment: Sensitization to TRAIL, methylene blue assay. Format: cell-based. To be noted: RCC54, RCC45 vs normal kidney epithelial cells; combination with TRAIL.
Data set [4] deals with PC3 p53-negative or DU145 cells comprising mutant p53. In words: Prostate cancer xenograft tumor growth. The class given is in vivo, mice. To be noted: 100 mg/kg by oral gavage; control sterile water. From the text:
Mice were also inoculated with 2×10^6 human prostate cancer cells using PC3 p53-negative or with DU145 cells comprising mutant p53. […] Tumor growth was reduced by ˜50% in quinacrine-treated mice.

The next data set concerns HT1080siGFP cells. In words: Xenograft tumor growth, p53-expressing tumors. The class given is in vivo, nude mice. To be noted: 50 mg/kg i.p. daily; 5FU 35 mg/kg for comparison. On the procedure:
as §5, §2

A further data set deals with RCC45ConALacZ cells. In words: p53-responsive reporter (ConALacZ) β-galactosidase assay in RCC45 cells. The class given is cell-based. To be noted: compared with doxorubicin. On the procedure:
2×10^4 of RCC45ConALacZ cells were plated into wells of 96 well plates in 200 μL of phenol-red free RPMI medium with standard additives. After overnight incubation library of chemical compounds in DMSO solution together with controls was added with the help of plastic bacterial replicators (200+/−100 nL). Final concentration of compounds was around 5 μg/ml. Negative control was DMSO, positive control was doxorubicin solution (0.2, 0.6 and 2 μM). After 24 hours lysis buffer with ONPG was added directly to the medium on ice. After 3 hours of incubation at 37° C., β-galactosidase activity was estimated by reading absorbance values Wallack 1420 plate reader (Perkin Elmer) at λ=430 nm.
For cotransfection set-up, 2×10^5 cells were plated into 6 well plates and, after overnight incubation, transfected with Lipofectamin Plus reagent (Gibco BRL) with 0.5 μg of reporter plasmids (p21-ConALuc or pNF-κBLuc) in combination with different concentrations of p53, Arf, Ss-IκB, or siHDM2 expressing plasmids. […] Luciferase activity and β-galactosidase activity was measured in lysates prepared 48 hours after transfection with Cell Lysis Buffer (Promega) by luciferase assay system (Promega) or β-galactosidase enzyme system (Promega). Luminometric and colorimetric reactions were read on the Wallack 1420 plate reader (Perkin Elmer). […]

Residues, ends and D or L forms follow the SMILES beside them. *: point of attachment. Cbz = O=C(OCc1ccccc1)*

As for `O=c1[nH]cc(F)c(=O)[nH]1` [5FU, 5-fluorouracil], in the data set with ACHN cells (5FU 35 mg/kg), the weight loss entry is “up to 20%”.

As for `CC(C)C[C@@H](C=O)NC(=O)[C@H](CC(C)C)NC(=O)[C@H](CC(C)C)NC(=O)OCc1ccccc1` [MG132] (Cbz-Leu-Leu-Leu-aldehyde), the “level of IκB” value with IκB was “caused accumulation of phosphorylated forms of IkB”.

Take `CC[C@@]1(O)C(=O)OCc2c1cc1n(c2=O)Cc2cc3ccccc3nc2-1` [camptothecin]: the “toxicity found to be p53-dependent (none = not p53-dependent)” value in [1] is “none”.

`COc1cccc2c1C(=O)c1c(O)c3c(c(O)c1C2=O)C[C@@](O)(C(=O)CO)C[C@@H]3O[C@H]1C[C@H](N)[C@H](O)[C@H](C)O1` [doxorubicin]: in data set [2], the “expression of p53-responsive reporter in tumor samples” value is given as “not”. Moreover, in the data set with p53, the p53 phosphorylation status result is “did induce phosphorylation of p53”. Moreover, the “toxicity found to be p53-dependent (none = not p53-dependent)” value in data set [1] is “none”.

On to `CC(=O)O[C@H]1C(=O)[C@@]2(C)[C@H]([C@H](OC(=O)c3ccccc3)[C@]3(O)C[C@H](OC(=O)[C@H](O)[C@@H](NC(=O)c4ccccc4)c4ccccc4)C(C)=C1C3(C)C)[C@]1(OC(C)=O)CO[C@@H]1C[C@@H]2O` [paclitaxel], for which, in [1], the “toxicity found to be p53-dependent (none = not p53-dependent)” value is “none”.

For `CCN(CC)CCCC(C)Nc1c2ccc(Cl)cc2nc2ccc(OC)cc12` (stereo not shown) [quinacrine, Quinacrine], the “activation of p53 in tumors” value with HT1080ConALuC tumors was “capable of activating p53 in tumors”. Further, the “expression of p53-responsive reporter in tumor samples” value in data set [2] is on record as “induced expression of the p53-responsive reporter”. In addition, the “RCC cell lines with restored p53-mediated transactivation” value with RCC cell lines is 9 out of 10. Also, the NF-κB-responsive reporter activity entry in the data set with H1299-NF-kBLuc cells was “inhibited basal and TNF-induced activity of the reporter”. Besides, the “growth of p53-deficient tumors” value with HT1080sip53 cells was “no effect”. Further, in data set [3], the TRAIL resistance result is on record as “inverted TRAIL resistance of tumor but not normal kidney cells”. In addition, in data set [4], the “reduction of tumor growth” value is recorded as approximately 50%. For the same compound, the “growth of p53-expressing tumors” value in the data set with HT1080siGFP cells was “inhibited growth of p53-expressing tumors to the same extend as 5FU”. The “p53 reactivation / reporter induction (in words)” value in the data set with RCC45ConALacZ cells is listed as “intermediate level of activity”. Besides, the “weight loss (in words)” value in the data set with ACHN cells (50 mg/kg intraperitoneally) is “without significant weight loss”. The “inhibition of tumor growth” value in the data set on ACHN cells (ACHN s.c. in nude mice, 50 mg/kg intraperitoneally) is listed as “about 50%”.

On to `CC[C@]1(O)C[C@@H]2CN(CCc3c([nH]c4ccccc34)[C@@](C(=O)OC)(c3cc4c(cc3OC)N(C)[C@H]3[C@@](O)(C(=O)OC)[C@H](OC(C)=O)[C@]5(CC)C=CCN6CC[C@]43[C@@H]65)C2)C1` [vinblastine], for which the “toxicity found to be p53-dependent (none = not p53-dependent)” value in [1] was “none”.
